Data from US9724351B2, “Compounds for the treatment of paramoxyvirus viral infections” (priority 2012, dated 2017).

Tests used:
[1] = tested on: Respiratory Syncytial Virus (RSV) long strain (ATCC#VR-26); assay: RSV Antiviral Assay (CPE reduction assay); format: cell-based; details: human respiratory syncytial virus, 120 h; HEp-2 cells infected with RSV long strain, 5 days, CCK-8 readout; bins (Table 2: less than 1 μM; Table 3: equal to or higher than 1 μM and less than 50 μM); read-out: 50% effective concentration (EC50)
Procedure: CPE reduction assays are performed as described by Sidwell and Huffman et al., Appl. Microbiol. (1971) 22(5):797-801 with slight modifications. HEp-2 cells (ATCC#, CCL-23) are seeded at a density of 1,500 cells/30 μl/well into the 384-well cell plate(s) (Corning#3701) one day prior to the assay. Compounds are added into 384-well cell plates by Labcyte POD 810 Plate Assembler system. Each of the test compounds is provided to duplicate wells of a 384-well cell plate at final concentrations starting from 100 μM or 1 μM using ⅓ stepwise dilutions for 9 points. Quick-thaw Respiratory Syncytial Virus (RSV) long strain (ATCC#VR-26) stock in a 37° C. water bath. Place on ice until ready to use. Viruses are diluted to the concentration of 100 TCID50/30 μl with medium and 30 μl diluted RSV are added into related wells of 384-well cell plates. For each plate, sixteen wells are set aside as uninfected, untreated cell controls (CC), and nine wells per test plate receive virus only as a control for virus replication (VC). The final DMSO concentration of all wells is 1%. Place the plates at 37° C., 5% CO2 for 5 days.
After 5 days incubation, observe the CPE of cells in all wells. […] Six μl of cell counting kit-8 reagent (CCK-8, Dojindo Molecular Technologies Inc., CK04-20) are added to each well, which allows colorimetric assays to determine the number of viable cells through the dehydrogenase activity detection. After 3-4 hour incubation, the absorbance of each well is measured with a spectrophotometric plate reader at 450 nm wavelength, using a 630 nm filter as background according to manufacturer's instruction. The 50% effective concentration (EC50) is calculated by using regression analysis, based on the mean O.D. at each concentration of compound.

[2] = Cytotoxicity Determination; format: cell-based; details: human, HEp-2 cells, without addition of virus, CCK-8 readout, bins (Table 4: greater than 100 μM; Table 5: equal to or less than 100 μM and greater than 10 μM), read-out: 50% cytotoxicity concentration (CC50)
Procedure: In order to determine the compound cytotoxicity, in parallel, each of the compounds is applied to duplicate wells in a 384-well cell plate at serial final concentrations starting from 100 μM using ½ stepwise dilutions for 7 points without addition of virus. Incubate the cells at 37° C., 5% CO2 for 5 days. Add 6 μl CCK-8 into each well and incubate in a CO2 incubator at 37° C. for 3-4 hours. Read the plates to obtain the optical densities which are used to calculate 50% cytotoxicity concentration (CC50).

| SMILES | EC50 [1] | CC50 at 5 days [2] |
| --- | --- | --- |
| COc1ccc(C(=O)NCC(=O)N/N=C(/CC2CC2)c2csc3ccccc23)cc1OC [Compound 400-5] | 1 to 50 µM | > 100 µM |
| COc1cc(C(=O)NCC(=O)c2ccc(OC)c(-c3ccc(C(F)(F)F)cc3)n2)ccc1OCCO [Compound 1605] | < 1 µM | 10 to 100 µM |
| COc1cc(C(=O)NCC(=O)c2cn(C(C)C)cc(-c3csc4c(F)cccc34)c2=O)ccc1OCCO [Compound 2200] | < 1 µM | > 100 µM |
| COc1cc(C(=O)N[C@@H](CO)C(=O)c2ccc(OC)c(-c3ccc(F)c(Cl)c3)n2)ccc1OCCO [Compound 1832] | < 1 µM | 10 to 100 µM |
| COc1ccc(C(=O)NCC(=O)c2ncc(-c3csc4c(F)cccc34)[nH]2)cc1OC [Compound 1352] | 1 to 50 µM | 10 to 100 µM |
| CCN(CC)c1ccc(C(=O)NCC(=O)N/N=C(\C)c2csc3ccccc23)cc1OC [Compound 500] | 1 to 50 µM | > 100 µM |
| COc1ccc(C(=O)NCC(=O)c2ccc(OC)c(-c3ccc(C#N)cc3)n2)cc1OC [Compound 1505] | < 1 µM | > 100 µM |
| COc1ccc(C(=O)NCC(=O)N/N=C(\CO)c2csc3ccccc23)cc1OC [Compound 442] | 1 to 50 µM | > 100 µM |
| COc1cc(C(=O)NCC(=O)c2ccc(OC)c(C3=CS(=O)(=O)c4c(F)cccc43)n2)ccc1OCCO [Compound 1344] | 1 to 50 µM | 10 to 100 µM |
| CC/C(=N\NC(=O)CNC(=O)c1ccc(OC)c(OC)c1)c1csc2ccccc12 [Compound 415] | < 1 µM | 10 to 100 µM |
| COc1cc(C(=O)NCC(=O)c2cccc(-c3csc4c(F)cccc34)n2)ccc1OC1CNC1 [Compound 1251] | 1 to 50 µM | > 100 µM |
| C=C(C)c1cc(C(=O)CNC(=O)c2ccc(OC)c(OC)c2)nc(-c2csc3c(F)cccc23)c1 [Compound 1237] | < 1 µM | 10 to 100 µM |
| COc1cc(C(=O)NCC(=O)c2cc(C)cc(-c3csc4c(F)cccc34)n2)ccc1OCCO [Compound 1217] | < 1 µM | > 100 µM |
| COc1ccc(C(=O)NCC(=O)c2ccc(OC)c(-c3cccc4ncccc34)n2)cc1OC [Compound 1519] | 1 to 50 µM | 10 to 100 µM |
| COc1ccc2scc(/C(C)=N/NC(=O)CNC(=O)c3ccc(OC)c(OC)c3)c2c1 [Compound 400-9] | 1 to 50 µM | 10 to 100 µM |
| CCN(/N=C/c1csc2c(F)cccc12)C(=O)CNC(=O)c1ccc(OCCO)c(OC)c1 [Compound 2301] | < 1 µM | > 100 µM |
| CCOc1ccc(C(=O)NCC(=O)N/N=C(\C)c2csc3ccccc23)cc1OCC [Compound 457] | < 1 µM | 10 to 100 µM |
| COc1ccc(C(=O)NCC(=O)N/N=C(\C)c2csc3ccc(F)cc23)cc1OC [Compound 422] | 1 to 50 µM | 10 to 100 µM |
| COc1cccc(/C(=N/NC(=O)CNC(=O)c2ccc(OC)c(OC)c2)C(F)(F)F)c1 [Compound 450] | 1 to 50 µM | > 100 µM |
| COc1cc(C(=O)NCC(=O)c2cc(CO)cc(-c3ccc(F)c(Cl)c3)n2)ccc1OCC1CC1 [Compound 3800] | < 1 µM | 10 to 100 µM |
| COc1ccc(C(=O)NCC(=O)N/N=C/c2ccc3ccsc3c2)cc1OC [Compound 496] | 1 to 50 µM | 10 to 100 µM |
| COc1cc(C(=O)NCC(=O)c2ccc(OC)c(-c3ccc(F)c(Cl)c3)n2)ccc1OCC1CC1 [Compound 2638] | < 1 µM | 10 to 100 µM |
| COc1ccc(C(=O)NCC(=O)c2cn(C)cc(-c3csc4c(F)cccc34)c2=O)cc1OC [Compound 1338] | 1 to 50 µM | 10 to 100 µM |
| COc1ccc(C(=O)NCC(=O)c2ccc(OC)c(-c3c[nH]nc3C)n2)cc1OC [Compound 1541] | 1 to 50 µM | > 100 µM |
| CCN(CC)c1ccc(C(=O)NCC(=O)c2ccc(OC)c(-c3ccc(F)c(Cl)c3)n2)cc1 [Compound 1320] | 1 to 50 µM | > 100 µM |
| COc1ccc(C(=O)NCC(=O)N/N=C2\CCCc3[nH]c4ccccc4c32)cc1OC [Compound 414] | 1 to 50 µM | 10 to 100 µM |

| SMILES | EC50 [1] | CC50 at 5 days [2] |
| --- | --- | --- |
| COc1ccc(C(=O)NCC(=O)c2ccc(OC)c(-c3c(C)ccnc3Cl)n2)cc1OC [Compound 1511] | 1 to 50 µM | 10 to 100 µM |
| COc1ccc(C(=O)NCC(=O)c2cccc(-c3csc4c(F)cccc34)c2)cc1OC [Compound 1218] | 1 to 50 µM | > 100 µM |
| CCOc1ccc(C(=O)NCC(=O)N/N=C/c2csc3c(F)cccc23)cc1OC [Compound 400-26] | < 1 µM | > 100 µM |
| COc1cc(C(=O)NCC(=O)c2ccc(OC)c(-c3ccc(F)c(C(F)F)c3)n2)ccc1OCCO [Compound 1327] | < 1 µM | > 100 µM |
| COc1ccc(C(=O)NCC(=O)c2ccc(OC)c(-c3ccnc(F)c3)n2)cc1OC [Compound 1535] | 1 to 50 µM | > 100 µM |
| CCCC/C(=N\NC(=O)CNC(=O)c1ccc(OCC)c(OC)c1)c1csc2ccccc12 [Compound 488] | < 1 µM | > 100 µM |
| COc1cc(C(=O)NCC(=O)N/N=C(\C)c2csc3ccccc23)ccc1O [Compound 478] | 1 to 50 µM | 10 to 100 µM |
| COc1cc(C(=O)NCC(=O)c2ccc(OC)c(-c3ccc(S(C)(=O)=O)cc3)n2)ccc1OCCO [Compound 1604] | 1 to 50 µM | > 100 µM |
| COc1cc(C(=O)CNC(=O)c2ccc(OC)c(OC)c2)nc(-c2ccc3c(c2)OCCO3)c1 [Compound 1402] | 1 to 50 µM | > 100 µM |
| CCCC/C(=N\NC(=O)CNC(=O)c1ccc(OC)c(OCC)c1)c1csc2ccccc12 [Compound 246A] | < 1 µM | 10 to 100 µM |
| COc1ccc(C(=O)NCC(=O)c2ccc(OC)c(-c3cnoc3)n2)cc1OC [Compound 1510] | 1 to 50 µM | 10 to 100 µM |
| COC/C(=N\NC(=O)CNC(=O)c1ccc(OC)c(OC)c1)c1csc2ccccc12 [Compound 443] | 1 to 50 µM | > 100 µM |
| COc1ccc(C(=O)NCC(=O)c2ccc(-c3csc4c(F)cccc34)o2)cc1OC [Compound 1351] | 1 to 50 µM | > 100 µM |
| COCC/C(=N/NC(=O)CNC(=O)c1ccc(OCCO)c(OC)c1)c1csc2c(F)cccc12 [Compound 603B] | < 1 µM | > 100 µM |
| COc1cc(C(=O)NCC(=O)c2cccc(-c3csc4c(F)cccc34)n2)ccc1OCCO [Compound 1209] | < 1 µM | 10 to 100 µM |
| CCc1ccc(C(=O)CNC(=O)c2ccc(OC)c(OC)c2)nc1-c1csc2c(F)cccc12 [Compound 2105] | 1 to 50 µM | 10 to 100 µM |
| CCN1C/C(=N\NC(=O)CNC(=O)c2ccc(OC)c(OC)c2)c2c(sc3c(F)cccc23)C1 [Compound 400-23] | < 1 µM | > 100 µM |
| COc1cc(C(=O)NCC(=O)N(C)C(=O)N(C)c2csc3c(F)cccc23)ccc1OCCO [Compound 2803] | 1 to 50 µM | > 100 µM |
| COc1ccc(C(=O)N(C)N(C)C(=O)c2cccc(-c3csc4c(F)cccc34)n2)cc1OC [Compound 3103] | 1 to 50 µM | 10 to 100 µM |
| CCOc1ccc(C(=O)NCC(=O)N/N=C(\CC2CCCCC2)c2csc3ccccc23)cc1OC [Compound 460] | < 1 µM | > 100 µM |
| COc1ccc(C(=O)NCC(=O)N/N=C(\C)c2cc3c(F)cccc3s2)cc1OC [Compound 400-3] | 1 to 50 µM | > 100 µM |
| COc1cc(C(=O)NCC(=O)c2ccc(OC)c(-c3ccc(F)cc3)n2)ccc1OCCO [Compound 1608] | < 1 µM | 10 to 100 µM |
| COc1cc(C(=O)NCC(=O)c2cccc(-c3csc4c(F)cccc34)n2)ccc1O[C@H]1CC[C@@H](O)CC1 [Compound 1225] | 1 to 50 µM | > 100 µM |
| COCC/C(=N\NC(=O)CNC(=O)c1ccc(OCCO)c(OC)c1)c1csc2c(F)cccc12 [Compound 603A] | < 1 µM | > 100 µM |
| COc1ccc(C(=O)NCC(=O)c2ccc(OC)c(-c3ccc(F)c(Cl)c3)n2)cc1F [Compound 2642] | 1 to 50 µM | > 100 µM |
